Experimental data taken from ChEMBL document CHEMBL1201862, “PubChem BioAssay data set” (2004).
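Grown in 96-well plates, cells were treated for 48 hours with each compound at five concentrations. Insufficient inhibition: endpoint recorded as highest concentration tested. GI50 marks 50% less growth.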 Calls of active or inactive are those of the source. No stated cut-off is given here; in the data, active = GI50 up to about 1.1 µM and inactive = higher.

Tests used:
Assay in all cases: inhibition of tumour cell growth, NCI panel, 48 h
786-0 = test system: 786-0
A549 = test system: A549
ACHN = test system: ACHN
BT-549 = test system: BT-549
EKVX = test system: EKVX
HL-60 = test system: HL-60
HT-29 = test system: HT-29
Hs-578T = test system: Hs-578T
KM12 = test system: KM12
MCF7 = test system: MCF7
MDA-N = test system: MDA-N
Malme-3M = test system: Malme-3M
NCI-H460 = test system: NCI-H460
NCI-H522 = test system: NCI-H522
SF-268 = test system: SF-268
SK-MEL-28 = test system: SK-MEL-28
SK-MEL-2 = test system: SK-MEL-2
SK-OV-3 = test system: SK-OV-3
SNB-19 = test system: SNB-19
SW-620 = test system: SW-620

| SMILES | GI50 (786-0) | GI50 (A549) | GI50 (ACHN) | GI50 (BT-549) | GI50 (EKVX) | GI50 (HL-60) | GI50 (HT-29) | GI50 (Hs-578T) | GI50 (KM12) | GI50 (MCF7) | GI50 (MDA-N) | GI50 (Malme-3M) | GI50 (NCI-H460) | GI50 (NCI-H522) | GI50 (SF-268) | GI50 (SK-MEL-28) | GI50 (SK-MEL-2) | GI50 (SK-OV-3) | GI50 (SNB-19) | GI50 (SW-620) |
| --- | --- | --- | --- | --- | --- | --- | --- | --- | --- | --- | --- | --- | --- | --- | --- | --- | --- | --- | --- | --- |
| O=C1c2ccccc2C2CNC1(O)c1ccccc12 (stereo not given) | > 100 µM (inactive) | > 100 µM (inactive) | > 100 µM (inactive) | > 100 µM (inactive) | > 100 µM (inactive) | > 100 µM (inactive) | > 100 µM (inactive) | > 100 µM (inactive) | > 100 µM (inactive) | > 100 µM (inactive) | > 100 µM (inactive) | > 100 µM (inactive) | > 100 µM (inactive) | > 100 µM (inactive) | > 100 µM (inactive) | > 100 µM (inactive) | > 100 µM (inactive) | > 100 µM (inactive) | > 100 µM (inactive) | > 100 µM (inactive) |
| COc1ccc2oc(=O)c3c(c2c1C)OC(C)(C)C=C3 | > 100 µM (inactive) | > 100 µM (inactive) | > 100 µM (inactive) | > 100 µM (inactive) | > 100 µM (inactive) | > 100 µM (inactive) | > 100 µM (inactive) | > 100 µM (inactive) | > 100 µM (inactive) | > 100 µM (inactive) | > 100 µM (inactive) | > 100 µM (inactive) | > 100 µM (inactive) | > 100 µM (inactive) | 23.2 µM (inactive) | > 100 µM (inactive) | > 100 µM (inactive) | > 100 µM (inactive) | > 100 µM (inactive) | > 100 µM (inactive) |
| CC(=O)OC(C)(C)/C=C/C(=O)[C@](C)(O)[C@H]1[C@H](O)C[C@@]2(C)[C@@H]3CC=C4[C@@H](C=C(O)C(=O)C4(C)C)[C@]3(C)C(=O)C[C@]12C [CUCURBITACIN E] | 0.0339 µM (active) | 0.0296 µM (active) | 0.0179 µM (active) | 0.027 µM (active) | 0.118 µM (active) | 0.0313 µM (active) | 0.0202 µM (active) | 0.0473 µM (active) | 0.504 µM (active) | 0.054 µM (active) | 0.0518 µM (active) | 0.0366 µM (active) | 0.0222 µM (active) | 0.0407 µM (active) | 0.0275 µM (active) | 0.024 µM (active) | 0.0139 µM (active) | 0.0436 µM (active) | 0.057 µM (active) | 0.0438 µM (active) |
| C[C@]12CC[C@@H]3c4ccc(OCC(=O)O)cc4CC[C@H]3[C@@H]1CCC2=O | > 100 µM (inactive) | > 100 µM (inactive) | > 100 µM (inactive) | > 100 µM (inactive) | > 100 µM (inactive) | 0.13 µM (active) | > 100 µM (inactive) | > 100 µM (inactive) | > 100 µM (inactive) | > 100 µM (inactive) | > 100 µM (inactive) | > 100 µM (inactive) | > 100 µM (inactive) | > 100 µM (inactive) | > 100 µM (inactive) | > 100 µM (inactive) | > 100 µM (inactive) | > 100 µM (inactive) | > 100 µM (inactive) | > 100 µM (inactive) |
| COc1cc(Nc2n[nH]c(NS(=O)(=O)c3cc(C)c(Cl)cc3S)n2)cc(OC)c1OC | > 100 µM (inactive) | > 100 µM (inactive) | > 100 µM (inactive) | > 100 µM (inactive) | > 100 µM (inactive) | > 100 µM (inactive) | > 100 µM (inactive) | > 100 µM (inactive) | > 100 µM (inactive) | > 100 µM (inactive) | > 100 µM (inactive) | > 100 µM (inactive) | > 100 µM (inactive) | > 100 µM (inactive) | > 100 µM (inactive) | > 100 µM (inactive) | > 100 µM (inactive) | > 100 µM (inactive) | > 100 µM (inactive) | > 100 µM (inactive) |
| O=[N+]([O-])c1cc(F)ccc1S(=O)(=O)c1ccccc1 | > 10 µM (inactive) | > 10 µM (inactive) | > 10 µM (inactive) | > 10 µM (inactive) | 5.14 µM (inactive) | > 10 µM (inactive) | > 10 µM (inactive) | > 10 µM (inactive) | > 10 µM (inactive) | > 10 µM (inactive) | > 10 µM (inactive) | > 10 µM (inactive) | > 10 µM (inactive) | 2.22 µM (inactive) | > 10 µM (inactive) | > 10 µM (inactive) | > 10 µM (inactive) | > 10 µM (inactive) | > 10 µM (inactive) | > 10 µM (inactive) |
| O=C(O)CSc1nnc(CCCCCCCCc2nnc(SCC(=O)O)o2)o1 | > 100 µM (inactive) | > 100 µM (inactive) | > 100 µM (inactive) | > 100 µM (inactive) | > 100 µM (inactive) | > 100 µM (inactive) | > 100 µM (inactive) | 82.2 µM (inactive) | > 100 µM (inactive) | > 100 µM (inactive) | > 100 µM (inactive) | > 100 µM (inactive) | > 100 µM (inactive) | > 100 µM (inactive) | > 100 µM (inactive) | > 100 µM (inactive) | > 100 µM (inactive) | > 100 µM (inactive) | > 100 µM (inactive) | > 100 µM (inactive) |
| C=C[C@]1(C)CC(O)C2C(=C)C(=O)OC2[C@H]1C(=C)C=O (stereo not given in full) | 1.91 µM (inactive) | 18.4 µM (inactive) | 2.36 µM (inactive) | 3.27 µM (inactive) | 15 µM (inactive) | 0.893 µM (active) | 2.33 µM (inactive) | 14.4 µM (inactive) | 2.17 µM (inactive) | 1.09 µM (active) | 3.92 µM (inactive) | 1.86 µM (inactive) | 14.5 µM (inactive) | 0.966 µM (active) | 3.95 µM (inactive) | 1.3 µM (inactive) | 3.5 µM (inactive) | 25.8 µM (inactive) | 18.2 µM (inactive) | 1.44 µM (inactive) |
